# Test results as given in patent US10633348B2, “Methods to treat lymphoplasmacytic lymphoma” (Dana-Farber Cancer Institute, Inc., priority 2013, dated 2020).
# Legend:
# Assay type in all cases: cell-based
# KSR1 = test system: KSR1
# TAO2 = test system: TAO2
# LCK = test system: LCK
# PRPK = test system: PRPK
# PAN3 = test system: PAN3
# FER = test system: FER
# PKR = test system: PKR
# BARK1 = test system: BARK1
# MAP2K5 = test system: MAP2K5
# PIK3CD = test system: PIK3CD
# CHK1 = test system: CHK1
# KHS1 = test system: KHS1
# MSK2 domain1 = test system: MSK2 domain1
# ZAP70 = test system: ZAP70
# KSR1, KSR2 = assay: KiNativ kinase profiling in A375 cells; settings: Activation Loop, SEQ ID NO 70, 1.0 μM
# DGKQ = test system: DGKQ
# MST3 = test system: MST3
# NDR2 = test system: NDR2
# MLK4 = test system: MLK4
# SLK = test system: SLK
# RSK2 domain1 = test system: RSK2 domain1
# MARK2, MARK3 = assay: KiNativ kinase profiling in A375 cells; settings: Lys2, SEQ ID NO 92, 1.0 μM
# CDK9 = test system: CDK9
# DGKH = test system: DGKH
# MST1 = test system: MST1
# DGKA = test system: DGKA
# TLK2 = test system: TLK2
# ERK2 = test system: ERK2
# PIP4K2A = test system: PIP4K2A
# MYO3A, MYO3B = assay: KiNativ kinase profiling in A375 cells; settings: Lys2, SEQ ID NO 115, 1.0 μM
# AurA = test system: AurA
# RIPK3 = test system: RIPK3
# IKKb = test system: IKKb
# ARAF = test system: ARAF
# PHKG1 = test system: PHKG1
# ERK1 = test system: ERK1
# LRRK2 = test system: LRRK2
# MAST3 = test system: MAST3
# CK1a = test system: CK1a
# PITSLRE = assay: KiNativ kinase profiling in A375 cells; settings: Lys2, SEQ ID NO 152, 1.0 μM
# CK1g2 = test system: CK1g2
# PIK3CG = test system: PIK3CG
# [1] = test system: WM patient primary lymphoplasmacytic cells (LPCs); assay: Apoptosis analysis (Annexin V/Propidium iodide); settings: for Apoptosis (%): 24 hours
# Procedure: WM cells were treated with and without the compounds described herein. Cells were incubated at 37° C. with 0.01˜4 uM of the compounds described herein. Apoptosis analysis was performed using Annexin V/Propidium iodide staining with the Apoptosis Detection Kit I (BD Pharmingen). 1×10^6/well cells were treated in 24 well plates for ˜24 hours with inhibitors or corresponding controls. A minimum of 10,000 events were acquired using a BD™ FACSCanto II flow cytometer and analyzed with BD FACS DIVA Software.
# Apoptosis analysis of WM patient primary lymphoplasmacytic cells (LPCs) was preformed following A-5 and A-14 treatment of Bone marrow mononuclear cells (BMMC) from WM patients for 24 hours. Apoptosis analysis was performed using Annexin V/Propidium iodide staining with the Apoptosis Detection Kit I (BD Pharmingen) in CD19-APC-cy7 antibody (BD Pharmingen) gated LPCs population.
smiles,measurement,setting,value
"CCN1CCN(Cc2ccc(NC(=O)c3ccc(C)c(Oc4cc(N)ncn4)c3)cc2C(F)(F)F)CC1 [(A-4), 3-((6-aminopyrimidin-4-yl)oxy)-N-(4-((4-ethylpiperazin-1-yl)methyl)-3-(trifluoromethyl)phenyl)-4-methylbenzamide]",inhibition of kinase labeling,KSR1,−22.0%
same,inhibition of kinase labeling,TAO2,86.0%
same,inhibition of kinase labeling,LCK,92.3%
same,inhibition of kinase labeling,PRPK,−13.7%
same,inhibition of kinase labeling,PAN3,12.1%
same,inhibition of kinase labeling,FER,91.4%
same,inhibition of kinase labeling,PKR,−28.4%
same,inhibition of kinase labeling,BARK1,−13.4%
same,inhibition of kinase labeling,MAP2K5,20.5%
same,inhibition of kinase labeling,PIK3CD,2.2%
same,inhibition of kinase labeling,CHK1,−5.0%
same,inhibition of kinase labeling,KHS1,15.8%
same,inhibition of kinase labeling,MSK2 domain1,−64.9%
same,inhibition of kinase labeling,ZAP70,49.2%
same,inhibition of kinase labeling,"KSR1, KSR2",−10.0%
same,inhibition of kinase labeling,DGKQ,11.0%
same,inhibition of kinase labeling,MST3,−3.7%
same,inhibition of kinase labeling,NDR2,−10.9%
same,inhibition of kinase labeling,MLK4,−1.7%
same,inhibition of kinase labeling,SLK,−14.3%
same,inhibition of kinase labeling,RSK2 domain1,−3.3%
same,inhibition of kinase labeling,"MARK2, MARK3",4.6%
same,inhibition of kinase labeling,CDK9,−16.2%
same,inhibition of kinase labeling,DGKH,−6.3%
same,inhibition of kinase labeling,MST1,−4.7%
same,inhibition of kinase labeling,DGKA,−4.8%
same,inhibition of kinase labeling,TLK2,7.1%
same,inhibition of kinase labeling,ERK2,−3.8%
same,inhibition of kinase labeling,PIP4K2A,−26.7%
same,inhibition of kinase labeling,"MYO3A, MYO3B",−15.3%
same,inhibition of kinase labeling,AurA,−16.0%
same,inhibition of kinase labeling,RIPK3,32.6%
same,inhibition of kinase labeling,IKKb,−12.6%
same,inhibition of kinase labeling,ARAF,12.2%
same,inhibition of kinase labeling,PHKG1,−49.0%
same,inhibition of kinase labeling,ERK1,−9.0%
same,inhibition of kinase labeling,LRRK2,−15.9%
same,inhibition of kinase labeling,MAST3,−8.1%
same,inhibition of kinase labeling,CK1a,−0.6%
same,inhibition of kinase labeling,PITSLRE,−10.4%
same,inhibition of kinase labeling,CK1g2,−9.1%
same,inhibition of kinase labeling,PIK3CG,−21.1%
"CCN1CCN(Cc2ccc(NC(=O)c3ccc(C)c(Oc4ccnc(Nc5cnn(C)c5)n4)c3)cc2C(F)(F)F)CC1 [(A-14), N-(4-((4-ethylpiperazin-1-yl)methyl)-3-(trifluoromethyl)phenyl)-4-methyl-3-((2-((1-methyl-1H-pyrazol-4-yl)amino)pyrimidin-4-yl)oxy)benzamide]",Apoptosis (%),"[1]; Patient 5, 0.5 μM",39.24%
same,Apoptosis (%),"[1]; Patient 5, 1.0 μM",46.86%
same,Apoptosis (%),"[1]; Patient 6, 1.0 μM",20.88%
same,Apoptosis (%),"[1]; Patient 7, 0.5 μM",22.62%
same,Apoptosis (%),"[1]; Patient 7, 1.0 μM",31.51%
same,Apoptosis (%),"[1]; Patient 8, 0.5 μM",12.9%
same,Apoptosis (%),"[1]; Patient 8, 1.0 μM",31.58%
same,Apoptosis (%),"[1]; Patient 9, 0.2 μM",24.8%
same,Apoptosis (%),"[1]; Patient 9, 1.0 μM",43.7%
same,Apoptosis (%),"[1]; Patient 10, 0.2 μM",27.9%
same,Apoptosis (%),"[1]; Patient 10, 1.0 μM",52%
same,Apoptosis (%),"[1]; Patient 11, 0.2 μM",53.1%
same,Apoptosis (%),"[1]; Patient 11, 1.0 μM",71.8%
same,apoptosis compared with DMSO control,[1]; WM patient primary LPCs,induced significant apoptosis
